Data published in publication PMC8803906, “Metabolite Identification and Pharmacokinetic Behavior of Diaveridine in the Plasma of Pigs and Chickens Based on Radioactive Tracing Coupled With LC/MS-IT-TOF Assay” (Frontiers in Veterinary Science, 2022).
Entries after “also recorded” stand apart in the source; their conditions may differ. Read-outs that look alike come from different tables or passages of the source.

Key:
[1] = set-up: method as in PMID 22161732; details: pig liver microsomes incubated with DVD; cited from earlier work
[2] = Plasma pharmacokinetics of DVD and its metabolites in pigs after a single oral dose of ^3H-DVD (radioactive tracing, LC-v.ARC/MS-IT-TOF); details: for t1/2 (elimination half-life): non-compartmental; for Radioactive compound detected/identified in plasma / Concentration in plasma: single oral ^3H-DVD 10 mg/kg BW; for Concentration in plasma: pigs
Source text: (§1) Four healthy castrated male pigs (Landrace/Doric Cross, 60-d-old, 30 ± 2 kg) were supplied by the China Breeding Pig Testing Center of Huazhong Agricultural University (Wuhan, China). Six healthy Cobb 500 broiler chickens (three female and three male, 40-d-old, 2.5 ± 0.1 kg) were purchased from Wuhan Chia Tai chicken farm (Wuhan, China). All animals were maintained under standard environmental conditions by using normal husbandry practices and were acclimatized for 1 week. The animals were fed a commercial standard diet and water ad libitum, but were fasted overnight before dose administration and up to 4 h after dose administration. All animal care and experimental protocols were conducted in accordance with the Guide for the Care and Use of Laboratory Animals of Hubei Provincial Laboratory Animal Public Service Center (permit number SYXK 2013-0044) and approved by the Ethics Committee of Huazhong Agricultural University.
(§2) Pigs (n = 4) and chickens (n = 6) were weighed individually and given a single dose of 10 mg/kg BW ^3H-DVD with a specific activity of 0.23 Ci/g. The ^3H-DVD solution was prepared by accurately mixing ^3H-DVD and non-labeled DVD at a mass ratio of 1:96 and diluting it with 0.5% methylcellulose to make a homogeneous suspension with a concentration of 25 mg/ml. The suspension was administered by gastric gavage using a soft stomach tube connected to an injection syringe. About 1.5 ml of blood was collected into heparinized tubes from the anterior venae cavae of pig and the wing veins of chicken at different time points. For pigs, blood was collected before administration and 0.17, 0.33, 0.5, 0.67, 1, 1.5, 2, 4, 6, 8, 12, 24, 48, 72, 168, and 336 h after oral treatment. For chickens, blood was collected before administration and 0.25, 0.5, 1, 1.5, 2, 4, 6, 8, 12, 24, 36, 48, 72, 168, and 336 h after oral dosing. Plasma samples were collected after centrifugation at 4°C and 2,254 × g for 10 min and were stored at −20°C until analysis.
(§3) Plasma samples were completely thawed at room temperature. Each sample was divided into two parts, one was used for the assay of total radioactivity, and the other was subjected to a MCX Solid Phase Extraction (SPE) procedure for the qualitative and quantitative analysis of DVD-related metabolites.
(§4) The total radioactivity assay was conducted in accordance with a previous study with a few modifications ([20]). Briefly, 50 μl of plasma was mixed with 50 μl of 0.1 mol/L EDTA-Na and 50 μl of 30% H2O2 at 50°C in a shaking water bath for 2 h for bleaching. The obtained transparent liquid was mixed with 10 ml of Ultima Gold™ scintillation fluid and was analyzed directly using a Packard Tri-Carb 2900 TR liquid scintillation counter (PerkinElmer Life and Analytical Sciences, Waltham, MA, USA). The scintillation counter data were automatically corrected for counting efficiency using an instrument-stored quench curve that was drawn with a series of sealed quenched ^14C standards. All the samples were analyzed in duplicate and the actual radioactivity of each sample was calculated by subtracting the […].
(§5) A 500 μl plasma sample was adjusted to pH 2.8–3.2 with 1 ml of 1 M hydrochloric acid (HCl), and a […] aliquot of the mixture was placed in a MCX cartridge preconditioned with 3 ml of methanol followed by 3 ml of 0.1 mol/L HCl water. The cartridge was washed with 3 ml of 0.1 mol/L HCl water and then eluted with 5 ml NH4OH/methanol (8:92, v:v). The effluent was concentrated to dryness under a stream of nitrogen at 40°C. The residue was reconstituted in 250 μl of methanol-water (1:9, v:v) before injection onto the LC-v.ARC/MS-IT-TOF system for metabolite identification and quantitation.
(§6) Measurement of total radioactivity in each sample was conducted using a Packard Tri-Carb 2900 TR liquid scintillation counter. The detection time was 10 min for two cycles.

[3] = set-up: method as in PMID 4650364; details: urine at 8 h after a single oral dose of 10 mg/kg BW TMP; cited from earlier work
[4] = Plasma pharmacokinetics of DVD and its metabolites in chickens after a single oral dose of ^3H-DVD (radioactive tracing, LC-v.ARC/MS-IT-TOF); details: for Radioactive compound detected/identified in plasma / Concentration in plasma: single oral ^3H-DVD 10 mg/kg BW; for Concentration in plasma: chickens
Source text: as §1, §2, §3, §4, §5, §6

[5] = set-up: method as in PMID 26212255; details: cited from earlier work
[6] = chickens, cited from earlier work
[7] = tested on: tester strain TA100 and TA98; set-up: method as in PMID 1922158, PMID 26397222; details: cited from earlier work
[8] = pigs, cited from earlier work
[9] = pig plasma, oral ^3H-DVD 10 mg/kg BW
[10] = chicken plasma, oral ^3H-DVD 10 mg/kg BW
[11] = both, Cobb 500 broiler, in vivo, po, 10 mg/kg
[12] = HPLC-UV method, previous studies
[13] = male, Landrace/Doric Cross, pig, in vivo, po, 10 mg/kg

For `COc1ccc(Cc2cnc(N)nc2N)cc1O` [D1, 3′-desmethyl-DVD], the “Metabolite detected in vitro” value [1] is given as “detected”, the “AUC0−∞” value [2, 9] is given as 3720 ± 620 ng·h/mL and the “ClB (total body clearance)” value [2, 9] is given as 46 ± 7.67 mL/min/kg. The “Cmax (maximum drug concentration)” value [2, 9] was 240 ± 50 ng/mL, the “MRT0−∞” value [2, 9] was 22.93 ± 1.28 h and the MRTLast [2, 9] was 15.23 ± 0.25 h. For the same compound, the “Tmax (time to Cmax from time zero)” value [2, 9] was 2 h, the “Vd (apparent volume of distribution)” value [2, 9] was 70.38 ± 6.67 L/kg and the “t1/2 (elimination half-life)” value [2, 9] was 17.86 ± 1.30 h. For the same compound, the “Radioactive compound detected/identified in plasma” value ([2]; pig plasma) was “identified; also recorded: detected”, the Concentration in plasma ([2]; 0.5 h, ND = below the LOQ) was 120 ± 30 ng/mL and the Concentration in plasma ([2]; 0.67 h) was 150 ± 20 ng/mL. For the same compound, the Concentration in plasma ([2]; 1 h) was 160 ± 40 ng/mL, the Concentration in plasma ([2]; 1.5 h) was 190 ± 30 ng/mL and the Concentration in plasma ([2]; 2 h) was 240 ± 60 ng/mL. It also gave a Concentration in plasma ([2]; 4 h) of 160 ± 20 ng/mL, a Concentration in plasma ([2]; 6 h) of 100 ± 20 ng/mL and a Concentration in plasma ([2]; 8 h) of 80 ± 10 ng/mL. It also gave a Concentration in plasma ([2]; 12 h) of 80 ± 10 ng/mL, a Concentration in plasma ([2]; 24 h) of 60 ± 10 ng/mL and a Concentration in plasma ([2]; 48 h) of 20 ± 10 ng/mL.
For `COc1cc(Cc2cnc(N)nc2N)cc(OC)c1O` [4′-demethylated TMP], the Content in urine [3] is given as 1%.
For `COc1ccc(Cc2cnc(N)nc2N)cc1OC1OC(C(=O)O)C(O)C(O)C1O` (centres unmarked) [D2, monoglucuronide of 3′-desmethyl-DVD], the “Metabolite detected in vitro” value [1] is given as “no D2 was found”, the “AUC0−∞” value [4, 10] is given as 1730 ± 440 ng·h/mL and the “ClB (total body clearance)” value [4, 10] is given as 102 ± 26.3 mL/min/kg. The “Cmax (maximum drug concentration)” value [4, 10] was 270 ± 80 ng/mL, the “MRT0−∞” value [4, 10] was 6.20 ± 0.18 h and the MRTLast [4, 10] was 4.66 ± 0.17 h. For the same compound, the “Tmax (time to Cmax from time zero)” value [4, 10] was 2 h, the “Vd (apparent volume of distribution)” value [4, 10] was 32.45 ± 12.36 L/kg and the “t1/2 (elimination half-life)” value ([4]; chicken plasma, oral ^3H-DVD 10 mg/kg BW, non-compartmental) was 3.56 ± 0.44 h. For the same compound, the “Radioactive compound detected/identified in plasma” value ([4]; chicken plasma) was “identified; also recorded: detected”, the Concentration in plasma ([4]; 1 h) was 120 ± 30 ng/mL and the Concentration in plasma ([4]; 1.5 h) was 230 ± 30 ng/mL. The Concentration in plasma ([4]; 2 h) was 270 ± 90 ng/mL, the Concentration in plasma ([4]; 4 h) was 180 ± 60 ng/mL and the Concentration in plasma ([4]; 6 h) was 140 ± 50 ng/mL. The Concentration in plasma ([4]; 8 h) was 90 ± 30 ng/mL, the Concentration in plasma ([4]; 12 h) was 40 ± 10 ng/mL and the “AUC0−∞” value [2, 9] was 17580 ± 2320 ng·h/mL. The “ClB (total body clearance)” value [2, 9] was 9.67 ± 1.3 mL/min/kg, the “Cmax (maximum drug concentration)” value [2, 9] was 1380 ± 40 ng/mL and the “MRT0−∞” value [2, 9] was 23.01 ± 1.48 h. The MRTLast [2, 9] was 14.91 ± 0.41 h, the “Tmax (time to Cmax from time zero)” value [2, 9] was 2 h and the “Vd (apparent volume of distribution)” value [2, 9] was 15.39 ± 3.28 L/kg. The “t1/2 (elimination half-life)” value [2, 9] was 18.26 ± 1.70 h, the “Radioactive compound detected/identified in plasma” value ([2]; pig plasma) was “identified; also recorded: detected” and the Concentration in plasma ([2]; 0.17 h, ND = below the LOQ) was 100 ± 30 ng/mL. The Concentration in plasma ([2]; 0.33 h, ND = below the LOQ) was 260 ± 110 ng/mL, the Concentration in plasma ([2]; 0.5 h, ND = below the LOQ) was 520 ± 150 ng/mL and the Concentration in plasma ([2]; 0.67 h) was 610 ± 190 ng/mL. It also gave a Concentration in plasma ([2]; 1 h) of 690 ± 200 ng/mL, a Concentration in plasma ([2]; 1.5 h) of 1230 ± 40 ng/mL and a Concentration in plasma ([2]; 2 h) of 1380 ± 40 ng/mL. The Concentration in plasma ([2]; 4 h) was 660 ± 50 ng/mL, the Concentration in plasma ([2]; 6 h) was 500 ± 80 ng/mL and the Concentration in plasma ([2]; 8 h) was 410 ± 70 ng/mL. For the same compound, the Concentration in plasma ([2]; 12 h) was 350 ± 60 ng/mL, the Concentration in plasma ([2]; 24 h) was 270 ± 80 ng/mL and the Concentration in plasma ([2]; 48 h) was 90 ± 10 ng/mL.
In the case of `COc1ccc(Cc2cnc(N)nc2N)cc1OC` [D0, 5-[(3′,4′-dimethoxyphenyl)methyl]-2,4-pyrimidinediamine, reference compound], the “Tmax (time to Cmax from time zero)” value ([4]; both, Cobb 500 broiler, chicken, in vivo) is reported as 2.0 ± 0.0 h, the concentration at 168 h ([4]; both, Cobb 500 broiler, chicken, in vivo, 10 mg/kg BW) is reported as 90 ± 30 ng/mL and the AUC0−∞ ([4]; both, Cobb 500 broiler, chicken, in vivo, po) is reported as 55300 ng·h/mL. The AUC(0-inf) [4, 11] was 55300 ± 11500 ng·h/mL, the “ClB (total body clearance)” value [4, 11] was 3.17 ± 0.67 mL/min/kg and the Cmax [4, 11] was 1550 ± 390 ng/mL. For the same compound, the MRT inf [4, 11] was 66.2 ± 10.7 h, the MRT last [4, 11] was 43.7 ± 2.42 h and the half-life [4, 11] was 48.3 ± 12.8 h. The “Tmax (time to Cmax from time zero)” value [4, 10] was 2 h, the “Radioactive compound detected/identified in plasma” value ([4]; chicken plasma) was “identified; also recorded: detected” and the “Time at which DVD was still detected in plasma” value (shortened to “Time … in plasma”) ([4]; chicken plasma, this study) was 168 h. For the same compound, the Withdrawal period ([5]; kidney) was 6.74 days, the Withdrawal period ([5]; liver) was 4.94 days and the Withdrawal period ([5]; muscle) was 4.77 days. For the same compound, the Withdrawal period ([5]; skin with fat) was 4.58 days, the Cmax [6, 12] was 1450 ng/mL and the Tmax [6, 12] was 3.25 h. For the same compound, the “Time … in plasma” value ([6]; HPLC-UV, ref Li et al. 15) was 24 h, the “Tmax (time to Cmax from time zero)” value ([2]; male, Landrace/Doric Cross, pig, in vivo) was 2.0 ± 0.0 h and the concentration at 168 h ([2]; male, Landrace/Doric Cross, pig, in vivo, 10 mg/kg BW) was 60 ± 20 ng/mL. For the same compound, the AUC0−∞ ([2]; male, Landrace/Doric Cross, pig, in vivo, po) was 33900 ng·h/mL, the AUC(0-inf) [2, 13] was 33900 ± 5810 ng·h/mL and the “ClB (total body clearance)” value [2, 13] was 5 ± 0.83 mL/min/kg. For the same compound, the Cmax [2, 13] was 490 ± 20 ng/mL, the MRT inf [2, 13] was 93 ± 12.6 h and the MRT last [2, 13] was 57.3 ± 1.72 h. The half-life [2, 13] was 66.4 ± 10.1 h, the “Tmax (time to Cmax from time zero)” value [2, 9] was 2 h and the “Radioactive compound detected/identified in plasma” value ([2]; pig plasma) was “identified; also recorded: detected”. For the same compound, the “Time … in plasma” value ([2]; pig plasma, this study) was 168 h, the Mutagenicity ([7]; strain TA100 after metabolic activation with hamster S9 mix) was “mutagenic” and the Mutagenicity ([7]; tester strain TA100 and TA98, presence and absence of rat S9 mix) was “not mutagenic”. For the same compound, the Cmax [8, 12] was 430 ng/mL, the Tmax [8, 12] was 1.04 h and the “Time … in plasma” value ([8]; HPLC-UV, ref Li et al. 15) was 6 h.
For `COc1cc(Cc2cnc(N)nc2N)cc(O)c1OC` [3′-demethylated TMP], the Content in urine [3] is listed as greater than 30%.
